Measurements from the Kinase Knowledgebase extract (Sharma et al. 2016).

Biological target: MAPK14 (human) (UniProt Q16539)
Test: Inhibition of MAPK14 Kinase Activity

Sequence of MAPK14 (human) (Q16539 whole entry, looked up): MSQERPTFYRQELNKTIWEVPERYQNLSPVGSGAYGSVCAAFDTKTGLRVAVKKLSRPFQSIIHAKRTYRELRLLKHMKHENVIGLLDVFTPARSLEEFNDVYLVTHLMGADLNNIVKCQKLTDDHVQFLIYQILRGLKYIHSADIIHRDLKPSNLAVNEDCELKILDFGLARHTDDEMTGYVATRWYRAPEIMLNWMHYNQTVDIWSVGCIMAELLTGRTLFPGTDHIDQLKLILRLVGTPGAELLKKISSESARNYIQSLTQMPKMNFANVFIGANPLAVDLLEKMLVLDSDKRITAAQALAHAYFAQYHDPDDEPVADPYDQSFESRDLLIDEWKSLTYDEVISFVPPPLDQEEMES

IC50, ≤ 1000 nM:
CN(C)c1ccc(-n2c(=O)ccc3c(Nc4ccccc4)c(C(=O)NCCN4CCCCC4)sc32)cc1
O=c1ccc2c(Nc3ccccc3)csc2n1-c1ccccc1
Cc1cccc(Nc2c(C(=N)N)sc3c2ccc(=O)n3-c2ccccc2)c1
N#Cc1sc2c(ccc(=O)n2-c2ccccc2)c1Nc1ccccc1OC(F)(F)F
C=Cc1ccc(-n2c(=O)ccc3c(Nc4ccccc4)c(C(N)=O)sc32)cc1
O=C(c1sc2c(ccc(=O)n2-c2ccccc2)c1Nc1ccccc1)N1CCCCC1
CCOC(=O)c1sc2c(ccc(=O)n2-c2ccccc2)c1Nc1ccc(F)c(Cl)c1
CC(=O)c1sc2c(ccc(=O)n2-c2ccccc2)c1Nc1ccccc1
CN1CCN(CCCNC(=O)c2sc3c(ccc(=O)n3-c3ccccc3)c2Nc2ccccc2)CC1
NS(=O)(=O)c1sc2c(ccc(=O)n2-c2ccccc2)c1Nc1ccc(F)cc1F
O=C(NCCN1CCOCC1)c1sc2c(ccc(=O)n2-c2ccccc2)c1Nc1ccccc1
Cc1cc(Nc2c(C#N)sc3c2ccc(=O)n3CC2CC2)ccc1F
Cc1cc(Nc2c(C(N)=O)sc3c2ccc(=O)n3-c2ccsc2)ccc1F
Cc1cc(Nc2c(C(N)=O)sc3c2ccc(=O)n3-c2ccc(F)cc2)ccc1F
NC(=O)c1sc2c(ccc(=O)n2-c2ccc(C(O)CO)cc2)c1Nc1ccccc1 (centres undefined)
O=C(NCCCn1ccnc1)c1sc2c(ccc(=O)n2-c2ccccc2)c1Nc1ccccc1
N#Cc1sc2c(ccc(=O)n2-c2ccccc2)c1Nc1c(Cl)cccc1Cl
Cc1cccc(Nc2c(C#N)sc3c2ccc(=O)n3CC2CC2)c1
N#Cc1sc2c(ccc(=O)n2-c2ccccc2)c1Nc1cccc(Cl)c1
CON(C)C(=O)c1sc2c(ccc(=O)n2-c2ccccc2)c1Nc1ccc(F)cc1F
CCOC(=O)c1sc2c(ccc(=O)n2-c2ccccc2[N+](=O)[O-])c1Nc1ccc(F)cc1F
Cc1cc(F)ccc1Nc1c(C#N)sc2c1ccc(=O)n2-c1ccccc1
CC(=O)c1ccc(-n2c(=O)ccc3c(Nc4cccc(Cl)c4)c(C#N)sc32)cc1
O=C(c1sc2c(ccc(=O)n2-c2ccccc2)c1Nc1ccc(F)cc1F)N1CCOCC1
NC(=O)c1sc2c(ccc(=O)n2-c2ccccc2)c1Nc1ccc(F)c(Cl)c1
NC(=O)c1sc2c(ccc(=O)n2Cc2ccccc2)c1Nc1ccccc1
CCOC(=O)c1sc2c(ccc(=O)n2-c2ccccc2)c1Nc1ccccc1OC
N#Cc1sc2c(ccc(=O)n2-c2ccccc2)c1Nc1ccccc1O
Cc1ccc(-n2c(=O)ccc3c(Nc4ccc(F)c(C)c4)c(C(N)=O)sc32)cc1
Cc1nccn1CCOc1ccc(-n2c(=O)ccc3c(Nc4ccc(F)cc4F)c(C(N)=O)sc32)cc1
Cc1cccc(Nc2c(C(N)=O)sc3c2ccc(=O)n3-c2ccccc2C)c1
CCOC(=O)c1sc2c(ccc(=O)n2CC2CC2)c1Nc1ccc(F)cc1F
O=C(O)c1sc2c(ccc(=O)n2-c2ccccc2)c1Nc1ccccc1
CON(C)C(=O)c1sc2c(ccc(=O)n2-c2ccc(N(C)C)cc2)c1Nc1ccccc1
NC(=O)c1sc2c(ccc(=O)n2CC2CC2)c1Nc1ccc(F)cc1F
CCOC(=O)c1sc2c(ccc(=O)n2-c2ccsc2)c1Nc1ccccc1
CCN(CC)CCNC(=O)c1sc2c(ccc(=O)n2-c2ccccc2)c1Nc1ccccc1
NC(=O)c1sc2c(ccc(=O)n2-c2ccccc2)c1Nc1cccc(C(F)(F)F)c1
Cc1cc(Nc2c(C(N)=O)sc3c2ccc(=O)n3-c2ccccc2)ccc1F
O=C(NC1CCNC1)c1sc2c(ccc(=O)n2-c2ccccc2)c1Nc1ccc(F)cc1F (centres undefined)
NC(=O)c1sc2c(ccc(=O)n2-c2ccccc2)c1Nc1ccc(F)cc1F
CCOC(=O)c1sc2c(ccc(=O)n2-c2ccccc2)c1N(C)c1ccccc1
N#Cc1sc2c(ccc(=O)n2-c2ccccc2Cl)c1Nc1ccccc1
NC(=O)c1sc2c(ccc(=O)n2-c2ccccc2)c1Nc1c(Cl)cccc1Cl
N#Cc1sc2c(ccc(=O)n2-c2ccccc2)c1Nc1cccc(SC(F)(F)F)c1
CC(C)(O)CNC(=N)c1sc2c(ccc(=O)n2-c2ccccc2)c1Nc1ccc(F)cc1F
CCOC(=O)c1sc2c(ccc(=O)n2-c2ccccc2)c1Nc1cccc(OC(F)(F)F)c1
C=Cc1ccc(-n2c(=O)ccc3c(Nc4ccccc4)c(C(=O)OCC)sc32)cc1
Cc1cccc(Nc2c(C(N)=O)sc3c2ccc(=O)n3-c2ccccc2)c1
CCOC(=O)c1sc2c(ccc(=O)n2-c2ccc(CN3CCCC3)cc2)c1Nc1ccccc1
CCOC(=O)c1sc2c(ccc(=O)n2-c2ccsc2)c1Nc1ccc(F)c(C)c1
CCOC(=O)c1sc2c(ccc(=O)n2-c2ccc(NS(C)(=O)=O)cc2)c1Nc1ccc(F)cc1F
CCOC(=O)c1sc2c(ccc(=O)n2-c2ccsc2)c1Nc1ccc(F)cc1F
CN(C)C(=O)c1sc2c(ccc(=O)n2-c2ccccc2)c1Nc1ccccc1
Cc1cc(Nc2c(C(N)=O)sc3c2ccc(=O)n3CC2CC2)ccc1F
CCOC(=O)c1sc2c(ccc(=O)n2-c2ccc(SC)cc2)c1Nc1ccccc1
CCOC(=O)c1sc2c(ccc(=O)n2-c2ccccc2)c1Nc1cccc(Cl)c1
NNC(=O)c1sc2c(ccc(=O)n2-c2ccccc2)c1Nc1ccccc1
CCOC(=O)c1sc2c(ccc(=O)n2-c2ccsc2)c1Nc1ccccc1C#N
CCOC(=O)c1sc2c(ccc(=O)n2-c2ccc3c(ccn3S(C)(=O)=O)c2)c1Nc1ccccc1C#N
N#Cc1sc2c(ccc(=O)n2-c2ccccc2)c1Nc1ccccc1
CCOC(=O)c1sc2c(ccc(=O)n2-c2ccc3c(ccn3C)c2)c1Nc1ccccc1C#N
N#Cc1cccc(Nc2c(C(N)=O)sc3c2ccc(=O)n3-c2ccccc2)c1
CCOC(=O)c1sc2c(ccc(=O)n2-c2ccccc2)c1Nc1ccc(OC)c(F)c1
N#Cc1sc2c(ccc(=O)n2-c2ccccc2)c1Nc1cccc(O)c1
CCOC(=O)c1sc2c(ccc(=O)n2Cc2ccccc2)c1Nc1ccccc1
O=C(NCCN1CCCCC1)c1sc2c(ccc(=O)n2-c2ccccc2)c1Nc1ccc(F)cc1F
CCN(CC)C(=O)c1sc2c(ccc(=O)n2-c2ccccc2)c1Nc1ccccc1
CCOC(=O)c1sc2c(ccc(=O)n2-c2ccc(F)cc2)c1Nc1ccc(F)c(C)c1
CCOC(=O)c1sc2c(ccc(=O)n2-c2ccc([S+](C)[O-])cc2)c1Nc1ccccc1 (centres undefined)
Cc1cc(Nc2c(C#N)sc3c2ccc(=O)n3-c2ccccc2C)ccc1F
CN(C)CCN(C)C(=O)c1sc2c(ccc(=O)n2-c2ccccc2)c1Nc1ccccc1
Cc1cccc(Nc2c(C(N)=O)sc3c2ccc(=O)n3CC2CC2)c1C#N
N#Cc1sc2c(ccc(=O)n2-c2ccccc2)c1Nc1c(F)cccc1F
